Test results from US9540428B2, “Extracellular matrix heparin-binding domains” (EPFL-TTO, priority 2012, dated 2017).

How the values were obtained:
[1] = tested on: SMC; assay: Smooth muscle cell proliferation on modified TG-PEG gels with PDGF-BB; format: cell-based
Procedure: Method: Three different gels were fabricated, unmodified PEG, and PEG gels modified with TNC III1-5 or FN III9*-10,TNC III1-5 (5 μM). Unbound fragment was washed from the gels. Sequentially, gels were incubated for 1 hour at 37° C. with 100 μL DMEM without PDGF-BB or with PDGF-BB (1 ng per gel). For one set of gels, the media containing PDGF-BB was removed and gels were washed for 1 hour at RT. Cells were added to each gel and a proliferation assay with Alamar Blue was performed at 72 hours.

[2] = molecular target: T1, binding of TNC III1-5 to the cytokines (Homo sapiens, UniProt P24821); assay: Competition ELISA: TNC III1-5 binding to cytokines with gradient of full length tenascin or heparin; settings: high concentrations of competitor; 10 nM TNC III1-5
T1 construct: factor Xa cleavage site (N); made in house; host or cells: HEK-293E
T1 sequence (P24821 622-1074): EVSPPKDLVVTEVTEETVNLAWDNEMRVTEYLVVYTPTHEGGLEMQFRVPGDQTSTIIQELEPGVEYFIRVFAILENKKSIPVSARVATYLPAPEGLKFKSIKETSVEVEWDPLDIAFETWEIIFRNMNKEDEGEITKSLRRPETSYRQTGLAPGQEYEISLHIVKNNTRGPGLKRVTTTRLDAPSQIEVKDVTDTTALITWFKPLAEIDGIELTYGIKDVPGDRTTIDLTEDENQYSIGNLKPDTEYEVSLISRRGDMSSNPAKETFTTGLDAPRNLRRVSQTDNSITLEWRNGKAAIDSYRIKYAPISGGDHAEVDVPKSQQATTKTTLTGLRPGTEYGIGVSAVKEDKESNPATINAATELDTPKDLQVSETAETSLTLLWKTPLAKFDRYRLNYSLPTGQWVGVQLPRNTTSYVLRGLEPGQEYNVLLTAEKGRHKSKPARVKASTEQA
Procedure: ELISA plates were coated with cytokines or BSA and further incubated with TNC III1-5 in the presence of a gradient of full length tenascin or heparin to verify the specificity of the binding. […] TNC bound to the cytokines, making them unavailable for TNC III1-5, while heparin bound to TNC III1-5, blocking it to bind to the cytokines. Method: 50 nM of cytokine was coated for (1 hr, 37° C.). After blocking with 2% BSA (1 hr, RT). 10 nM TNC III1-5 was applied in PBST (0.05% tween, 0.1% bovine serum albumin (BSA)) (1 hr, RT) in the presence of a gradient of full length tenascin (0, 0.2, 0.6, 1.9, 5.6, 17, 50 nM) or heparin (0.01, 0.64, 3.2, 16, 80, 400, 2000, 10000). TNC III1-5 was detected with HRP-anti-HIS in PBST (1 hr, RT) and developed with TMB. Background values were obtained by applying each tenascin (0, 0.2, 0.6, 1.9, 5.6, 17, 50 nM) or heparin (0.01, 0.64, 3.2, 16, 80, 400, 2000, 10000) concentration to the cytokine without TNC III1-5, and were subtracted as normalization.
To verify specific binding of tenascin to the cytokines, tenascin (0, 0.1, 0.2, 0.6, 1.9, 5.6, 17, 50 nM) was incubated with PDGF-BB (50 nM) and BSA and detected with mouse anti-tenascin, HRP-anti-mouse, and TMB.

[3] = tested on: HUVEC cells; assay: HUVEC proliferation with cytokines with or without fibrinogen or Fg β15-66; format: cell-based, human; settings: 72 hours; ≧100-fold molar excess; VEGF-A165, PlGF-2, FGF-2
Procedure: To verify that cytokines bound to Fg β15-66 are still bioactive, the proliferation of HUVEC cells was tested for different cytokines with and without the presence of Fg β15-66. Method: HUVEC cells were stimulated with various cytokines: VEGF-A165, PlGF-2, and FGF-2 with or without fibrinogen or Fg β15-66 in excess (≧100-fold molar excess).

[4] = molecular target: T2, binding of TNC III1-5 to cytokines (Homo sapiens, UniProt P24821); assay: ELISA binding of TNC III1-5 to cytokines in presence of 4 μM heparin; settings: heparin 4 μM; 100 nM TNC III1-5
T2 construct: factor Xa cleavage site (N); made in house; host or cells: HEK-293E
Procedure: ELISA plates were coated with cytokines or BSA and further incubated with TNC III1-5 to analyze binding of TNC III1-5 to a wide variety of cytokines. […] Results are depicted in FIG. 3. Method: 50 nM of cytokine was coated for (1 hr, 37° C.). After blocking with 2% BSA (1 hr, RT). 100 nM TNC III1-5 was applied in PBST (0.05% tween, 0.1% bovine serum albumin (BSA)) (1 hr, RT). TNC III1-5 was detected with horseradish peroxidase (HRP)-anti-HIS in PBST (1 hr, RT) and developed with 3,3′,5,5′-tetramethylbenzidine (TMB), a soluble colorimetric HRP […]. Addition of sulfuric acid stop solution changes the color to yellow, enabling accurate measurement of the intensity at 450 nm using a spectrophotometer or plate reader. […] Heparin (4 μM) was added to TNC III1-5 to test the effect of blocking the heparin binding site of TNC III1-5, which has been defined as domain TNC III5 (Weber, Zimmermann, et al., 1995).

[5] = molecular target: PDGF-BB (Homo sapiens, UniProt P01127); assay: ELISA of individual TNC domains binding PDGF-BB
Procedure: An ELISA was performed to test the affinity of different domains present in TNC1-5 to PDGF-BB as an example cytokine that has shown to bind TNC III1-5. […] Method: ELISA plates were coated with individual TNC domains fused to GST, as well as GST and BSA. Wells were blocked with BSA and then incubated with 2 nM PDGF-BB. Binding of PDGF-BB was detected using an anti-PDGF-BB antibody and then a secondary horseradish peroxidase conjugated antibody.

[6] = tested on: skin wounds; settings: applied topically for five consecutive days; 20 μg/wound VEGF-A165 or 10 μg/wound PDGF-BB; cited from earlier work

In the case of “FN III9*-10-TNC III1-5: fusion protein of fibronectin integrin binding domain FN III9*-10 and TNC III1-5 with TG substrate, SEQ ID NO:5”, the “SMC proliferation on top of a PEG gel, fusion vs TNC III1-5” value ([1]; addition of FN III9*-10 to TNC III1-5) is reported as “significantly enhanced SMC proliferation” and the “SMC proliferation on TG-PEG gels (2%)” value ([1]; in the presence of PDGF-BB, 5 μM fragment, 72 hours) is reported as “enhanced SMC proliferation”.

In the case of “TNC: full length tenascin C, extracellular matrix glycoprotein, used as competitor”, the “competition of binding of TNC III1-5 to the cytokines” value [2] is reported as “competed away binding”.

With fibrinogen [reference compound] the “synergistic effect on HUVEC proliferation, cytokines plus protein vs cytokines alone” value [3] was “no synergistic effect”.

For heparin, the “effect on binding of TNC III1-5 to cytokines” value [4] was “impaired binding” and the “competition of binding of TNC III1-5 to the cytokines” value [2] was “competed away binding”.

B1: TNC III4-5: fibronectin type III domains 4-5 of tenascin C (protein)
chain: APRNLRRVSQTDNSITLEWRNGKAAIDSYRIKYAPISGGDHAEVDVPKSQQATTKTTLTGLRPGTEYGIGVSAVKEDKESNPATINAATELDTPKDLQVSETAETSLTLLWKTPLAKFDRYRLNYSLPTGQWVGVQLPRNTTSYVLRGLEPGQEYNVLLTAEKGRHKSKPARVKASTEQA
With B1 the cytokine-binding ([5]; test not specified) was “demonstrated cytokine-binding”.

B2: VEGF-A165: vascular endothelial growth factor, cytokine applied topically (protein)
chain: APMAEGGGQNHHEVVKFMDVYQRSYCHPIETLVDIFQEYPDEIEYIFKPSCVPLMRCGGCCNDEGLECVPTEESNITMQIMRIKPHQGQHIGEMSFLQHNKCECRPKKDRARQENPCGPCSERRKHLFVQDPQTCKCSCKNTDSRCKARQLELNERTCRCDKPRR
For B2, the “efficacy in the db/db mouse” value [6] is given as “efficient”.

B3: TNC III5: fifth fibronectin type III domain of tenascin C, heparin-binding; tested as GST fusion (protein)
chain: LQVSETAETSLTLLWKTPLAKFDRYRLNYSLPTGQWVGVQLPRNTTSYVLRGLEPGQEYNVLLTAEKGRHKSKPARVKASTEQA
modifications: left off: a dimerising Fc or GST
notes: tested as GST fusion
With B3 the “domain responsible for binding of PDGF-BB” value ([5]; GST-fused TNC domains coated, 2 nM PDGF-BB) was “responsible for cytokine binding”.

B4: PDGF-BB: platelet derived growth factor BB (REGRANEx®) applied topically (protein)
chain: SLGSLTIAEPAMIAECKTRTEVFEISRRLIDRTNANFLVWPPCVEVQRCSGCCNNRNVQCRPTQVQLRPVQVRKIEIVRKKPIFKKATVTLEDHLACKCETVAAARPVT
In the case of B4, the “efficacy in the db/db mouse” value [6] is listed as “efficient”.
